Counter-ions that a name gives are not always drawn.

Test [1] has as its target T1, purified aminopeptidase obtained from hog kidney (leucineaminopeptidase) (Sus scrofa, UniProt P28839).
T1 construct: a purified aminopeptidase obtained from hog kidney; purchased Baehringer (so in the source); host or cells: hog kidney tissue
T1 sequence (P28839 1-519): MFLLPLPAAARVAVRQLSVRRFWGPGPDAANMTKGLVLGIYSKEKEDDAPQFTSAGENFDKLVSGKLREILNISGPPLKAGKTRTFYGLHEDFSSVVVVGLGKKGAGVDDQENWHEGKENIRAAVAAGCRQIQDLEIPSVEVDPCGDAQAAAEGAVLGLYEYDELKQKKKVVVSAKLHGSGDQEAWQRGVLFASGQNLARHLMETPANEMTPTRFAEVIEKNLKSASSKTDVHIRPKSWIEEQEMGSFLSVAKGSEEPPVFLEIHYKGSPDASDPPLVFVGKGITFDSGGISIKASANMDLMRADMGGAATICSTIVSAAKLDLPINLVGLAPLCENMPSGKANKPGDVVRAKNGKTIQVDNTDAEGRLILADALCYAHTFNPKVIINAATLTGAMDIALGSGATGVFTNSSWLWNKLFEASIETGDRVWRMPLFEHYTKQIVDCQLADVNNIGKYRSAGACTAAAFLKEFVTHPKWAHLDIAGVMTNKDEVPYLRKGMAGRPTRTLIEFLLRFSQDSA
As to the kind of experiment: Inhibitory effect on leucineaminopeptidase activity (L-leucinamide hydrolysis, absorbance at 238 nm). Format: biochemical. Conditions: leucineamide 50 mM, tris-HCl pH 8.5, MgCl2 5 mM, 25° C., read-out: IC50 (concentration of the compound inducing a 50% decrease of the enzymatic activity). The text has this:
(§1) The activity of the compounds of formula I has been evaluated as inhibitory effect on the activity of leucineaminopeptidase and as stimulating effect on the mitogenetic activity of mouse splenic lymphocytes.
The inhibitory effect of the tested compounds has been evaluated on a purified aminopeptidase obtained from hog kidney (Baehringer, 100U/mg).
The enzymatic activity was estimated spectrophotometrically by using L-leucinamide as substrate and by measuring the hydrolysis of the peptide bond as decrease of absorbance at 238 nm.
The enzyme was activated prior to assay at 37° C. for 2 hours, in the presence of MgCl2 1 mM and tris-HCl buffer 20 mM pH 8.5 in a total volume of 2.5 ml.
The enzymatic reaction was followed at 238 nm for at least 30 minutes at 25° C. in 2.5 ml of an incubation medium containing 50 μg of enzyme, leucineamide 50 mM, tris-HCl buffer 20 mM pH 8.5 and MgCl2 5 mM in the absence or in the presence of increasing concentrations of the tested compound.
The inhibitory effect was expressed as the concentration of the compound inducing a 50% decrease of the enzymatic activity (IC50, nmoles/1).

Test [2] deals with mouse splenic lymphocytes. As to the kind of experiment: Immunostimulating (mitogenetic) activity: 3H-timidine incorporation in mouse splenic lymphocytes. In kind it is cell-based, mouse (C3H/H2). Conditions: compound at 1 μM; 48 h + 24 h incubation with 3H-TMD. As to the method:
as §1
The immunostimulating activity has been evaluated as ability to stimulate the incorporation of ^3 H-timidine (^3 H-TMD) in a culture of mouse splenic lymphocytes.
The splenic cells were drawn form C3H/H2 mice (age: 6-8 weeks) and suspended in RPMI-1640 medium containing HEPES 20 mM and 10% bovine fetal serum (inactivated to heat) at the concentration of 5×10^6 cells/ml.
Cells were sowed of Microtest plates (Falcon 3072) in the absence and in the presence of different concentrations of the compounds of formula I in a volume of 0.2 ml of medium.
After an incubation period of 48 hours at 37° C. in humidified environment at 5% CO2 /O2, 0.5 microCi of ^3 H-TMD (specific activity 2 Ci/mmoles) were added and the incubation was protracted for further 24 hours.
Cells were collected by filtration (Tretertek Cell Harnester) and the incorporated radioactivity was measured by Packard TRI-CARB 4530 scintillator.
The mitogenetic effect was expressed as percentage increase in the incorporation of ^3 H-TMD in lymphocytes incubated with the compounds of formula I at the concentration of 1 μM with respect to the basal incorporation value.

As for `CC(C)C[C@H](NC(=O)[C@@H](O)[C@H](N)Cc1ccc(S(C)(=O)=O)cc1)C(=O)O` [Example 3, N-[(2S,3R)-3-amino-2-hydroxy-4-(4-methylsulfonylphenyl)-butanoyl]-L-leucine], the IC50 in test [1] was 10 nM.

Turning to `CSc1ccc(C[C@@H](N)[C@H](O)C(=O)N[C@@H](CC(C)C)C(=O)O)cc1` [Example 11, N-[(2S,3R)-3-amino-2-hydroxy-4-(4-methylthiophenyl)-butanoyl]-L-leucine hydrobromide], the IC50 in test [1] came to 11 nM.

Turning to `CC(C)C[C@H](NC(=O)[C@H](O)[C@@H](N)Cc1ccc(S(C)(=O)=O)cc1)C(=O)O` [Example 4, N-[(2R,3S)-3-amino-2-hydroxy-4-(4-methylsulfonylphenyl)-butanoyl]-L-leucine], in test [2], the “percentage increase in the incorporation of 3H-TMD in lymphocytes with respect to the basal incorporation value” came to 109%.

For the origin of these results see US5028626A, “Peptides with pharmaceutical activity” (Zambon Group S.p.A., priority 1988, dated 1991).
